Drawing on patent US20240360178A1, “MACROCYCLIC IMMUNOMODULATORS” (Bristol-Myers Squibb Company, priority 2021, published 2024), this text covers IC50 for 15 compounds.

Positions of bridges follow the written chain, without caps; N, C: chain ends. Non-standard residues stand in square brackets, D forms with d. Residues, ends and D or L forms follow the SMILES beside them. ξ: configuration not given here. *: point of attachment. Phe(4-COOH) = N[C@@H](Cc1ccc(C(=O)O)cc1)C(=O)O; Bip = N[C@@H](Cc1ccc(-c2ccccc2)cc1)C(=O)O; Phe(3-OMe) = COc1cccc(C[C@H](N)C(=O)O)c1; NMeY = CN[C@@H](Cc1ccc(O)cc1)C(=O)O; NMeF = CN[C@@H](Cc1ccccc1)C(=O)O; hPhe = N[C@@H](CCc1ccccc1)C(=O)O; 4Pal = N[C@@H](Cc1ccncc1)C(=O)O; Cha = N[C@@H](CC1CCCCC1)C(=O)O; ξR = N=C(N)NCCCC(N)C(=O)O; Carboxymethyl = O=C(O)C*; NMeA = CN[C@@H](C)C(=O)O; Nle = CCCC[C@H](N)C(=O)O; Orn = NCCC[C@H](N)C(=O)O; Dab = NCC[C@H](N)C(=O)O; Dap = NC[C@H](N)C(=O)O; ξV = CC(C)C(N)C(=O)O; Sar = CNCC(=O)O

The assay concerns the target T1, human PD-1 (Jurkat-PD-1 cells) / PE-labeled human PD-L1-Ig (Homo sapiens, UniProt Q15116).
T1 construct: expressed in transfected cells; host or cells: Jurkat cell line over-expressing human PD-1
Nature of the assay: Jurkat-PD-1 Cell Binding High-Content Screening Assay (CBA); Jurkat hPD1-PDL1 assay. As to conditions: Jurkat cell line over-expressing human PD-1; PE-labeled PD-L1-Ig 20 nM final; compound incubated 2 hours at 37° C.; read-out: Jurkat HPD1-PDL1 IC50. Put shortly: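 Jurkat cells overexpressing human PD-1 (8×10^3 per well, DMEM with 10% FCS) were preincubated with compound for 2 hours at 37° C. PE-labeled human PD-L1-Ig was then added at 20 nM final. Binding was quantified by high-content imaging.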

T1 sequence (Q15116 25-288): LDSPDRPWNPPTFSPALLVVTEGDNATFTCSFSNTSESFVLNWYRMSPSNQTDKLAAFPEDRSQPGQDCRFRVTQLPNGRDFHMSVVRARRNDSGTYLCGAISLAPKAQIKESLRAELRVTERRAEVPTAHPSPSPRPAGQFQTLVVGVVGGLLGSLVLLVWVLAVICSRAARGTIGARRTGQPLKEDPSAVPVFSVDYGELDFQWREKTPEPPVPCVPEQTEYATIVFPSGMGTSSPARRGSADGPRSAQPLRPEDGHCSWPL

Take `CC(C)C1NC(=O)[C@H](Cc2c[nH]c3ccccc23)NC(=O)[C@H](CC(=O)O)NC(=O)[C@H](Cc2ccncc2)NC(=O)[C@H](Cc2ccc(OCC(=O)O)cc2)NC(=O)CSC[C@@H](C(=O)N[C@@H](C)C(N)=O)NC(=O)[C@H]([C@@H](C)O)NC(=O)[C@H](C(C)C)NC(=O)[C@H](CC2CCCCC2)NC(=O)[C@H](CCN)NC(=O)[C@H](Cc2ccc(O)cc2)N(C)C(=O)[C@H](CCCN)NC(=O)[C@H](CCC(=O)O)NC(=O)[C@H](Cc2ccc(-c3ccccc3)cc2)NC1=O` (stereo partly drawn) [Example 1452] ({CH2CO}-Y(Carboxymethyl)[4Pal]DW[ξV][Bip]E[Orn][NMeY][Dab][Cha]VTCA-NH2; thioether N-14): the IC50 was determined as 140 nM. As for `CC(C)C[C@@H]1NC(=O)[C@H](Cc2c[nH]c3ccccc23)NC(=O)[C@H](CC(=O)O)NC(=O)[C@H](Cc2ccc(O)cc2)NC(=O)[C@H](Cc2ccccc2)NC(=O)CSC[C@@H](C(=O)N[C@@H](C)C(N)=O)NC(=O)[C@H](CO)NC(=O)[C@H](C(C)C)NC(=O)[C@H](CC(C)C)NC(=O)[C@H](CCN)NC(=O)[C@H]2CCCN2C(=O)[C@H](CN)NC(=O)[C@H](C(C)C)NC(=O)[C@H](Cc2ccc(-c3ccccc3)cc2)NC1=O` [Example 1408] ({CH2CO}-FYDWL[Bip]V[Dap][dP][Dab]LVSCA-NH2; thioether N-14), the figure is 90 nM; as for `CC(C)C[C@@H]1NC(=O)[C@H](CCCNC(=N)N)NC(=O)[C@H](Cc2ccccc2)N(C)C(=O)[C@H](C)N(C)C(=O)[C@H](CCCNC(=N)N)NC(=O)[C@H](Cc2ccc(-c3ccccc3)cc2)NC(=O)[C@H](C(C)C)NC(=O)[C@H](Cc2c[nH]c3ccccc23)NC(=O)[C@H](CC(=O)O)NC(=O)[C@H](Cc2ccc(O)cc2)NC(=O)[C@H](CCC(N)=O)NC(=O)CSC[C@@H](C(=O)N[C@@H](C)C(N)=O)NC(=O)[C@H](CO)NC(=O)[C@H](C(C)C)NC1=O` [Example 1296] ({CH2CO}-QYDWV[Bip]R[NMeA][NMeF]RLVSCA-NH2; thioether N-14), 140 nM; as for `CC(C)C[C@@H]1NC(=O)[C@H](Cc2c[nH]c3ccccc23)NC(=O)[C@H](CC(=O)O)NC(=O)[C@H](Cc2ccc(O)cc2)NC(=O)[C@H](Cc2ccccc2)NC(=O)CSC[C@@H](C(=O)N[C@@H](C)C(N)=O)NC(=O)[C@H]([C@@H](C)O)NC(=O)[C@H](C(C)C)NC(=O)[C@H](CC(C)C)NC(=O)[C@H](CCN)NC(=O)[C@H]2CCCN2C(=O)[C@H](CN)NC(=O)[C@H](C(C)C)NC(=O)[C@H](Cc2ccc(-c3ccccc3)cc2)NC1=O` [Example 1409] ({CH2CO}-FYDWL[Bip]V[Dap][dP][Dab]LVTCA-NH2; thioether N-14), 280 nM.

`CC(C)C[C@@H]1NC(=O)[C@H](Cc2c[nH]c3ccccc23)NC(=O)[C@H](CC(=O)O)NC(=O)[C@H](Cc2ccc(O)cc2)NC(=O)[C@H](Cc2ccccc2)NC(=O)CSC[C@@H](C(=O)NCC(N)=O)NC(=O)[C@H](CO)NC(=O)[C@H](C(C)C)NC(=O)[C@H](CC(C)C)NC(=O)[C@H](CC(N)=O)NC(=O)[C@H](Cc2ccccc2)N(C)C(=O)[C@H](C)N(C)C(=O)[C@H](C(C)C)NC(=O)[C@H](Cc2ccc(-c3ccccc3)cc2)NC1=O` [Example 1205] ({CH2CO}-FYDWL[Bip]V[NMeA][NMeF]NLVSCG-NH2; thioether N-14): the IC50 was found to be 440 nM. In the case of `CC(C)C[C@@H]1NC(=O)[C@H](Cc2c[nH]c3ccccc23)NC(=O)[C@H](CC(=O)O)NC(=O)[C@H](Cc2ccc(O)cc2)NC(=O)[C@H](Cc2ccccc2)NC(=O)CSC[C@@H](C(=O)NCC(N)=O)NC(=O)[C@H]([C@@H](C)O)NC(=O)[C@H](C(C)C)NC(=O)[C@H](CC(C)C)NC(=O)[C@H](CC(N)=O)NC(=O)[C@H]2CCCN2C(=O)[C@H](CCN)NC(=O)[C@H](C(C)C)NC(=O)[C@H](Cc2ccc(-c3ccccc3)cc2)NC1=O` [Example 1411] ({CH2CO}-FYDWL[Bip]V[Dab][dP]NLVTCG-NH2; thioether N-14) it was 440 nM; in that of `COc1cccc(C[C@@H]2NC(=O)[C@H](CC(=O)O)NC(=O)[C@H](Cc3ccc(O)cc3)NC(=O)[C@H](Cc3ccccc3)NC(=O)CSC[C@@H](C(=O)N[C@@H](C)C(N)=O)NC(=O)[C@H](CO)NC(=O)[C@H](C(C)C)NC(=O)[C@H](CC(C)C)NC(=O)[C@H](CC(N)=O)NC(=O)[C@H]3CCCN3C(=O)[C@H](C)N(C)C(=O)[C@H](C(C)C)NC(=O)[C@H](Cc3ccc(-c4ccccc4)cc3)NC(=O)[C@H](CC(C)C)NC2=O)c1` [Example 1022] ({CH2CO}-FYD[Phe(3-OMe)]L[Bip]V[NMeA][dP]NLVSCA-NH2; thioether N-14), 10 nM; in that of `CC(C)C[C@@H]1NC(=O)[C@H](Cc2c[nH]c3ccccc23)NC(=O)[C@H](CC(=O)O)NC(=O)[C@H](Cc2ccc(O)cc2)NC(=O)[C@H](CC(N)=O)NC(=O)CSC[C@@H](C(=O)N[C@@H](C)C(N)=O)NC(=O)[C@H](CO)NC(=O)[C@H](C(C)C)NC(=O)[C@H](CC(C)C)NC(=O)[C@H](CC(N)=O)NC(=O)[C@H]2CCCN2C(=O)[C@H](C)N(C)C(=O)[C@H](C(C)C)NC(=O)[C@H](Cc2ccc(-c3ccccc3)cc2)NC1=O` [Example 1031] ({CH2CO}-NYDWL[Bip]V[NMeA][dP]NLVSCA-NH2; thioether N-14), 60 nM. In the case of `CC(C)C[C@@H]1NC(=O)[C@H](Cc2c[nH]c3ccccc23)NC(=O)[C@H](CC(=O)O)NC(=O)[C@H](Cc2ccc(O)cc2)NC(=O)[C@H](Cc2ccccc2)NC(=O)CSC[C@@H](C(=O)N[C@@H](C)C(N)=O)NC(=O)[C@H](CO)NC(=O)[C@H](C(C)C)NC(=O)[C@H](CC(C)C)NC(=O)[C@H](CCCCN)NC(=O)[C@H]2CCCN2C(=O)[C@H](C)N(C)C(=O)[C@H](CCC(=O)O)NC(=O)[C@H](Cc2ccc(-c3ccccc3)cc2)NC1=O` [Example 1036] ({CH2CO}-FYDWL[Bip]E[NMeA][dP]KLVSCA-NH2; thioether N-14) it was 60 nM; in that of `CC(C)C1NC(=O)[C@H](Cc2c[nH]c3ccccc23)NC(=O)[C@H](CC(=O)O)NC(=O)[C@H](Cc2ccc(C(=O)O)cc2)NC(=O)[C@H](Cc2ccc(OCC(=O)O)cc2)NC(=O)CSC[C@@H](C(=O)N[C@@H](C)C(N)=O)NC(=O)[C@H]([C@@H](C)O)NC(=O)[C@H](C(C)C)NC(=O)[C@H](CC2CCCCC2)NC(=O)[C@H](CCN)NC(=O)[C@H](Cc2ccccc2)N(C)C(=O)[C@H](CCCN)NC(=O)[C@H](CCC(=O)O)NC(=O)[C@H](Cc2ccc(-c3ccccc3)cc2)NC1=O` (stereo partly drawn) [Example 1443] ({CH2CO}-Y(Carboxymethyl)[Phe(4-COOH)]DW[ξV][Bip]E[Orn][NMeF][Dab][Cha]VTCA-NH2; thioether N-14), 80 nM. In the case of `CC(C)C[C@@H]1NC(=O)[C@H](CCCCN)NC(=O)[C@H](Cc2ccccc2)N(C)C(=O)[C@H](C)N(C)C(=O)[C@H](CCCNC(=N)N)NC(=O)[C@H](Cc2ccc(-c3ccccc3)cc2)NC(=O)[C@H](C(C)C)NC(=O)[C@H](Cc2c[nH]c3ccccc23)NC(=O)[C@H](CC(=O)O)NC(=O)[C@H](Cc2ccc(O)cc2)NC(=O)[C@H](CC(N)=O)NC(=O)CSC[C@@H](C(=O)N[C@@H](C)C(N)=O)NC(=O)[C@H]([C@@H](C)O)NC(=O)[C@H](C(C)C)NC1=O` [Example 1384] ({CH2CO}-NYDWV[Bip]R[NMeA][NMeF]KLVTCA-NH2; thioether N-14), the IC50 worked out at 220 nM. As for `CC(C)C[C@@H]1NC(=O)[C@H](Cc2c[nH]c3ccccc23)NC(=O)[C@H](CC(=O)O)NC(=O)[C@H](Cc2ccc(O)cc2)NC(=O)[C@H](CCc2ccccc2)NC(=O)CSC[C@@H](C(=O)N[C@@H](C)C(N)=O)NC(=O)[C@H](CO)NC(=O)[C@H](C(C)C)NC(=O)[C@H](CC(C)C)NC(=O)[C@H](CC(N)=O)NC(=O)CN(C)C(=O)[C@H](C)N(C)C(=O)[C@H](C(C)C)NC(=O)[C@H](Cc2ccc(-c3ccccc3)cc2)NC1=O` [Example 1070] ({CH2CO}-[hPhe]YDWL[Bip]V[NMeA][Sar]NLVSCA-NH2; thioether N-14), the figure is 180 nM; as for `CC(C)C[C@@H]1NC(=O)C(CCCNC(=N)N)NC(=O)[C@H](Cc2ccccc2)N(C)C(=O)[C@H](CCC(=O)O)NC(=O)[C@H](CCCNC(=N)N)NC(=O)[C@H](Cc2ccc(-c3ccccc3)cc2)NC(=O)[C@H](C(C)C)NC(=O)[C@H](Cc2c[nH]c3ccccc23)NC(=O)[C@H](CC(=O)O)NC(=O)[C@H](Cc2ccc(O)cc2)NC(=O)[C@H](Cc2ccccc2)NC(=O)CSC[C@@H](C(=O)NCC(N)=O)NC(=O)[C@H](CO)NC(=O)[C@H](C(C)C)NC1=O` (stereo partly drawn) [Example 1223] ({CH2CO}-FYDWV[Bip]RE[NMeF][ξR]LVSCG-NH2; thioether N-14), 990 nM. On to `CC(C)C[C@@H]1NC(=O)CSC[C@@H](C(=O)N[C@@H](C)C(N)=O)NC(=O)[C@H]([C@@H](C)O)NC(=O)[C@H](C(C)C)NC(=O)[C@H](CC(C)C)NC(=O)[C@H](CCCNC(=N)N)NC(=O)[C@H](Cc2ccccc2)N(C)C(=O)[C@H](C)N(C)C(=O)[C@H](CCCNC(=N)N)NC(=O)[C@H](Cc2ccc(-c3ccccc3)cc2)NC(=O)[C@H](C(C)C)NC(=O)[C@H](Cc2c[nH]c3ccccc23)NC(=O)[C@H](CC(=O)O)NC(=O)[C@H](Cc2ccc(O)cc2)NC1=O` [Example 1319] ({CH2CO}-LYDWV[Bip]R[NMeA][NMeF]RLVTCA-NH2; thioether N-14), for which the IC50 amounted to 130 nM. As for `CCCC[C@@H]1NC(=O)[C@H](CC(N)=O)NC(=O)CN(C)C(=O)[C@H](C)N(C)C(=O)[C@H](C(C)C)NC(=O)[C@H](Cc2ccc(-c3ccccc3)cc2)NC(=O)[C@H](CC(C)C)NC(=O)[C@H](Cc2c[nH]c3ccccc23)NC(=O)[C@H](CC(=O)O)NC(=O)[C@H](Cc2ccc(O)cc2)NC(=O)[C@H](Cc2ccccc2)NC(=O)CSC[C@@H](C(=O)NCC(N)=O)NC(=O)[C@H](CO)NC(=O)[C@H](C(C)C)NC1=O` [Example 1073] ({CH2CO}-FYDWL[Bip]V[NMeA][Sar]N[Nle]VSCG-NH2; thioether N-14), the figure is 190 nM.

As a reminder, the IC50 is the midpoint of a concentration-inhibition curve.
